This passage reports EC50 results from patent US20250170112A1, “ADENOSINE LIGANDS FOR THE TREATMENT OF NEUROLOGICAL DISORDERS” (Lucy Therapeutics, Inc., priority 2022, published 2025).

One assay deals with T1, human A2B (Homo sapiens, UniProt P29275).
T1 construct: expressed in transfected cells; host or cells: HEK293
T1 sequence (P29275 1-332): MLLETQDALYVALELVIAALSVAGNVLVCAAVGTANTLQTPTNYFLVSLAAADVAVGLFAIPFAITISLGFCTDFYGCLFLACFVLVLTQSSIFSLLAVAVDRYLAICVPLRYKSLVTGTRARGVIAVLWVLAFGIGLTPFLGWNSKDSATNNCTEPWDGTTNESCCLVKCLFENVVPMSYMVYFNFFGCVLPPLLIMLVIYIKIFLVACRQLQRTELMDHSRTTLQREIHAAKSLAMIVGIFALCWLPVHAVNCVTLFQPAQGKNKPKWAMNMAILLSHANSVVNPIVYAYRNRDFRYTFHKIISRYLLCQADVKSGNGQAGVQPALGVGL
Description: cAMP HTRF assay for Gs coupled receptor, agonist test. Particulars: agonist activity; HEK293 cells expressing recombinant human A2B; read-out: A2BAR EC50. It counts as cell-based. As to the method: (§1) SPA ^35S-GTPγS experiments were conducted with Epics Therapeutics membrane preparations. cAMP HTRF assays were conducted with recombinant cell lines.
Dose response curves are performed in parallel with the reference compounds.
For agonist test (96 well): 12 μL of cells are mixed with 12 μL of the test compound at increasing concentrations and then incubated 30 min at room temperature. After addition of the lysis buffer containing cAMP-d2 and anti-cAMP cryptate detection reagents, plates are incubated 1 hour incubation at room temperature, and fluorescence ratios are measured according to the manufacturer specification, with the HTRF kit.
In general terms: Time-resolved FRET reads energy transfer from a long-lived donor to a nearby acceptor.

Assay [1] addresses T2, human Adenosine A1 receptor (Homo sapiens, UniProt P30542).
T2 construct: host or cells: CHO-K1
T2 sequence (P30542 1-326): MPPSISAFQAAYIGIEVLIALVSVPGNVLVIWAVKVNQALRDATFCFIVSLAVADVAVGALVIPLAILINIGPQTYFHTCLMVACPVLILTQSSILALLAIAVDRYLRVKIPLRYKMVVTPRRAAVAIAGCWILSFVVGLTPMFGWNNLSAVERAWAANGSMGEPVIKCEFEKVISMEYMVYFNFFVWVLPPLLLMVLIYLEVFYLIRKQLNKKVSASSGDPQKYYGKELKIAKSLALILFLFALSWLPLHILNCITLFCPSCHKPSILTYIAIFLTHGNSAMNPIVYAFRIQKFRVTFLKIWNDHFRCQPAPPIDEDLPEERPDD
Description: GTPγS scintillation proximity assay, agonist testing. The format is biochemical. Particulars: agonist activity; membrane extracts of CHO-K1 cells expressing recombinant human A1; read-out: A1AR EC50. As to the method:
as §1
• Assay buffer: 20 mM HEPES pH 7.4; 100 mM NaCl, 10 μg/mL saponin, MgCl2 at optimized concentration for the specific receptor. • Membranes: membrane extracts prepared from CHO-K1 cells expressing recombinant human Adenosine A1 receptor, thawed on ice, diluted in assay buffer and kept on ice. • GDP: diluted in assay buffer at the optimized concentration for the specific receptor Beads: PVT-WGA (Perkin Elmer, RPNQ001), diluted in assay buffer at 50 mg/mL (0.5 mg/10 μL) • GTPγ^35S: (Perkin Elmer, NEG030X), diluted in assay buffer for a final 0.1 nM assay concentration
Protocol for agonist testing: membranes are mixed with GDP (volume:volume). In parallel, GTPγ[^35S] is mixed with the beads (volume:volume) just before starting the reaction. The following reagents are successively added in the wells of an Optiplate (Perkin Elmer): 50 μL of test or reference ligand, 25 μL of the membranes:GDP mix, and 25 μL of the GTPγ[^35S]:beads mix. The plates are covered with a top seal, mixed on an orbital shaker for 2 min, and then incubated for 1 hour at room temperature. Then the plates are centrifuged for 10 min at 2000 rpm, incubated at room temperature and counted for 30 sec/well with a PerkinElmer TopCount™ reader. • Conditions for the GTPγS scintillation proximity assay are shown in Table 14.
In general terms: SPA uses beads or plates that emit light when radiolabelled molecules are held near them.

For `N#Cc1cnc(SCC2CCCO2)c(C#N)c1-c1ccc(OCCO)cc1` (stereo not drawn) [Compound 1], the EC50 – broadly, the concentration giving half of the maximal effect – was 5850 nM at human A2B and greater than 10000 nM in assay [1].

In the case of `N#Cc1c(N)nc(SCc2cncc3[nH]ccc23)c(C#N)c1-c1ccc(OCCO)cc1` [Compound 2], the EC50 was 0.28 nM at human A2B and greater than 10000 nM in assay [1].

As for `COCCOc1ccc(-c2c(C#N)c(N)nc(SCc3ccnc4[nH]ccc34)c2C#N)cc1` [Compound 4], the EC50 was 2410 nM at human A2B and greater than 10000 nM in assay [1].

In the case of `N#Cc1c(N)nc(SCc2cccc3[nH]cnc23)c(C#N)c1-c1ccc(OCCO)cc1` [Compound 5], the values for the EC50 (at human A2B; in assay [1]) were 13.4 nM and greater than 10000 nM, respectively.

In the case of `N#Cc1c(SCc2cnccn2)nc(N2CCC2)c(C#N)c1-c1ccc(OCCO)cc1` [Compound 6], the EC50 came out at 213 nM on human A2B and 586 nM in assay [1].

For the compound `N#Cc1c(N)nc(SCc2cccc3occc23)c(C#N)c1-c1ccc(OCCO)cc1` [Compound 7], the figures for the EC50 (on human A2B; in assay [1]) were 150 nM and greater than 10000 nM, respectively.

As for `N#Cc1c(N)nc(SCc2cccc3[nH]ccc23)c(C#N)c1-c1ccc(OCCO)cc1` [Compound 8], the results for the EC50 (at human A2B; in assay [1]) were 37.7 nM and 37.1 nM, respectively.

As to `N#Cc1c(N)nc(SCC2CCCOC2)c(C#N)c1-c1ccc(OC2COC2)cc1` (stereo not drawn) [Compound 9], the EC50 on human A2B was determined as 2490 nM; in assay [1], 884 nM.

With `N#Cc1c(N)nc(SCCC2CCO2)c(C#N)c1-c1ccc(OCCO)cc1` (stereo not drawn) [Compound 10], the concentration for a half-maximal effect (EC50) at human A2B was 3760 nM; in assay [1] it was greater than 10000 nM.

For the compound `COCCOc1ccc(-c2c(C#N)c(SCc3cccnn3)nc(N3CCC3)c2C#N)cc1` [Compound 12], the EC50 on human A2B was greater than 10000 nM; in assay [1], 483 nM.

`N#Cc1c(N)nc(SCC2CCCOC2)c(C#N)c1-c1ccc(OCCO)cc1` (stereo not drawn) [Compound 13]: the EC50 is 272 nM on human A2B and greater than 10000 nM in assay [1].

Regarding `N#Cc1c(N)nc(SCc2ccnc3[nH]ccc23)c(C#N)c1-c1ccc(OCCO)cc1` [Compound 14], the EC50 is 81.7 nM on human A2B and 29.2 nM in assay [1].

For the compound `N#Cc1c(N)nc(SCc2cccc3[nH]ncc23)c(C#N)c1-c1ccc(OCCO)cc1` [Compound 15], the EC50 was 142 nM on human A2B and 1050 nM in assay [1].

As for `COCCOc1ccc(-c2c(C#N)c(N)nc(SCc3ccc4c(c3)OCC4)c2C#N)cc1` [Compound 16], the results for the EC50 (at human A2B; in assay [1]) were greater than 10000 nM and 7600 nM, respectively.

Consider `CCOCCSc1nc(N)c(C#N)c(-c2ccc(OC3COC3)cc2)c1C#N` [Compound 17], for which the EC50 at human A2B was 5950 nM; in assay [1] it was 99.1 nM.

For `N#Cc1cnc(SCc2cccnc2)c(C#N)c1-c1ccc(OC2COC2)cc1` [Compound 18], the figures for the EC50 (on human A2B; in assay [1]) were 299 nM and 69.5 nM, respectively.

`N#Cc1c(SCc2cccnn2)nc(N2CCC2)c(C#N)c1-c1ccc(OCCO)cc1` [Compound 20]: the EC50 was 3 nM at human A2B and 14.1 nM in assay [1].

`COCCOc1ccc(-c2c(C#N)c(SCc3cnccn3)nc(N3CCC3)c2C#N)cc1` [Compound 21]: the figures for the EC50 (on human A2B; in assay [1]) were greater than 10000 nM and 3520 nM, respectively.

For `N#Cc1c(N)nc(SCc2cccc3[nH]ccc23)c(C#N)c1-c1ccc(OC2COC2)cc1` [Compound 22, 2-Amino-6-(1H-indol-4-ylmethylsulfanyl)-4-[4-(oxetan-3-yloxy)phenyl]pyridine-3,5-dicarbonitrile], the EC50 on human A2B was greater than 10000 nM; in assay [1], 3.5 nM.

With `N#Cc1c(SCc2cncnc2)nc(N2CCC2)c(C#N)c1-c1ccc(OCCO)cc1` [Compound 23], the EC50 was 420 nM on human A2B and 100 nM in assay [1].

`N#Cc1c(N)nc(SCC2CCOC2)c(C#N)c1-c1ccc(OC2COC2)cc1` (stereo not drawn) [Compound 24]: the EC50 is greater than 10000 nM on human A2B and 9.8 nM in assay [1].

Regarding `N#Cc1c(N)nc(SCC2COC2)c(C#N)c1-c1ccc(OC2COC2)cc1` [Compound 25], the EC50 is greater than 10000 nM at human A2B and 1.1 nM in assay [1].

With `CCOCCSc1nc(N)c(C#N)c(-c2ccc(OCCO)cc2)c1C#N` [Compound 27], the EC50 was found to be 65.9 nM on human A2B and 31.4 nM in assay [1].

Take `N#Cc1c(N)nc(SCC2CCOC2)c(C#N)c1-c1ccc(OCCO)cc1` (stereo not drawn) [Compound 28]: the figures for the EC50 (on human A2B; in assay [1]) were greater than 10000 nM and 52.4 nM, respectively.

For `N#Cc1c(N)nc(SCc2cccc(OC(F)(F)F)c2)c(C#N)c1-c1ccc(OC2COC2)cc1` [Compound 29], the figures for the EC50 (at human A2B; in assay [1]) were 6120 nM and 79 nM, respectively.

`COCCOc1ccc(-c2c(C#N)c(SCc3cncnc3)nc(N3CCC3)c2C#N)cc1` [Compound 30]: the EC50 on human A2B is greater than 10000 nM; in assay [1] it was 3090 nM.

On to `N#Cc1c(N)nc(SC2CCOCC2)c(C#N)c1-c1ccc(OC2COC2)cc1` [Compound 31], for which the EC50 is greater than 10000 nM at human A2B and 596 nM in assay [1].

With `N#Cc1c(N)nc(SC2CCOCC2)c(C#N)c1-c1ccc(OCCO)cc1` [Compound 32], the 50% effective concentration (EC50) on human A2B was greater than 10000 nM; in assay [1], 890 nM.

Consider `COc1cccc(CSc2nc(N)c(C#N)c(-c3ccc(OC4COC4)cc3)c2C#N)c1` [Compound 33], for which the results for the EC50 (at human A2B; in assay [1]) were 563 nM and 7.9 nM, respectively.

For `CCOCCSc1nc(N)c(C#N)c(-c2ccc(OCCOC)cc2)c1C#N` [Compound 34], the EC50 on human A2B is greater than 10000 nM; in assay [1] it was 245 nM.

With `COCCOc1ccc(-c2c(C#N)c(N)nc(SCc3cccc(OC(F)(F)F)c3)c2C#N)cc1` [Compound 35], the EC50 on human A2B is greater than 10000 nM; in assay [1], 238 nM.

Regarding `COCCOc1ccc(-c2c(C#N)c(N)nc(SCC3CCOC3)c2C#N)cc1` (stereo not drawn) [Compound 36], the EC50 on human A2B is greater than 10000 nM; in assay [1] it was 124 nM.

For `COCCOc1ccc(-c2c(C#N)c(N)nc(SCc3cccc(OC)c3)c2C#N)cc1` [Compound 37], the EC50 was greater than 10000 nM at human A2B and 139 nM in assay [1].

Turning to `COCCOc1ccc(-c2c(C#N)c(C)nc(N)c2C#N)cc1` [Compound 39, 2-Amino-4-[4-(2-methoxyethoxy)phenyl]-6-methyl-pyridine-3,5-dicarbonitrile], the EC50 at human A2B is greater than 10000 nM; in assay [1], 862 nM.

In the case of `N#Cc1c(N)nc(SCc2cccnc2)c(C#N)c1-c1ccc(OCCOC(F)F)cc1` [Compound 40], the EC50 was greater than 10000 nM at human A2B and 21.6 nM in assay [1].

Take `COCCOc1ccc(-c2c(C#N)c(N)nc(SCc3ccc4cc[nH]c4c3)c2C#N)cc1` [Compound 44]: the figures for the EC50 (at human A2B; in assay [1]) were greater than 10000 nM and 34.3 nM, respectively.

Turning to `N#Cc1c(SCc2cccnc2)nc(C2CC2)c(C#N)c1-c1ccc(OCCO)cc1` [Compound 45, 2-Cyclopropyl-4-[4-(2-hydroxyethoxy)phenyl]-6-(3-pyridylmethylsulfanyl)-pyridine-3,5-dicarbonitrile], the EC50 at human A2B was 8.2 nM; in assay [1], 34.3 nM.

Regarding `COCCOc1ccc(-c2c(C#N)c(SCc3cccnc3)nc(C3CC3)c2C#N)cc1` [Compound 46], the EC50 is greater than 10000 nM on human A2B and 110 nM in assay [1].

Take `COCCOc1ccc(-c2c(C#N)c(C)nc(SCCC(F)(F)F)c2C#N)cc1` [Compound 47]: the EC50 was 36.1 nM at human A2B and greater than 10000 nM in assay [1].

On to `Cc1nc(SCCC(F)(F)F)c(C#N)c(-c2ccc(OCCO)cc2)c1C#N` [Compound 48], for which the EC50 at human A2B was 42.6 nM; in assay [1] it was greater than 10000 nM.

As for `CC(C)(O)COc1ccc(-c2c(C#N)c(SCc3cccnc3)nc(N3CCC3)c2C#N)cc1` [Compound 49], the results for the EC50 (on human A2B; in assay [1]) were 65 nM and 311 nM, respectively.

In the case of `CC(C)(O)COc1ccc(-c2c(C#N)c(SCc3cccnc3)nc(N3CCCC3)c2C#N)cc1` [Compound 50], the figures for the EC50 (on human A2B; in assay [1]) were 94.2 nM and 294 nM, respectively.
